In patent publication US7935672B2, “Derivatives of genkwanin and sakuranetin, cosmetic and therapeutic use thereof and preparation method of same” (priority 2004, dated 2011):

Experiments:
lymphoblasts = details: serious immune disorders; FR 2 510 580 A, FR 2 597 751 A, Lin et al. 2001; cited from earlier work
human blood cells = assay: human blood cells, proliferation and expression of membrane markers (Tests H); assay type: cell-based; details: for proliferation of the blood cells of the immune response: 24 or 48 hours at 37° C.
IL-2 = IL-2 content of cell supernatants after PHA or SEB stimulation (Tests H); details: following stimulation with PHA or SEB; FIGS. 2 and 3
leukoblasts = assay: antiblastic effect, activity against cancers and leukemias (method not described)
[1] = side effects on topical, oral or injected administration (method not described); details: administered topically, orally or by injection

| SMILES | effect on lymphoblasts formed in hyperplasia (lymphoblasts) | antibody production for the B lymphocytes (human blood cells) | class II MHCs for dendritic cells (human blood cells) | proliferation of the blood cells of the immune response (human blood cells) | IL-2 production (IL-2) | activity against certain acute cancers and leukemias (antiblastic effect) and chronic myeloid leukemia (leukoblasts) | harmful side effects [1] |
| --- | --- | --- | --- | --- | --- | --- | --- |
| COc1cc(O[C@@H]2O[C@H](CO[C@@H]3OC[C@@H](O)[C@H](O)[C@H]3O)[C@@H](O)[C@H](O)[C@H]2O)c2c(=O)cc(-c3ccc(O)cc3)oc2c1 [5-O-β-D-primeverosyl-genkwanin] | destroys the lymphoblasts formed | – | – | – | – | – | – |
| CCOc1ccc(C2CC(=O)c3c(cc(OC)cc3OC3OC(COC4OC(CO)C(O)C(O)C4O)C(O)C(O)C3O)O2)cc1 [Ex. 5, 2,3-dihydro-5-[O-6-(D-gluocpyranosyl)-β-D-glucopyranosyl]oxy-2-(4-ethoxyphenyl)-7-methoxy-4H-1-benzopyran-4-one] | – | decrease | decrease | do not induce proliferation | inhibition | – | – |
| COc1cc(OC2OC(COC3OCC(O)C(O)C3O)C(O)C(O)C2O)c2c(=O)cc(-c3ccc(O)cc3)oc2c1 [Ex. 2, 5-O-β-D-primeverosyl-genkwanin] | – | decrease | decrease | do not induce proliferation | inhibition | – | – |
| CCOc1ccc(-c2cc(=O)c3c(OC4OC(COC5OC(CO)C(O)C(O)C5O)C(O)C(O)C4O)cc(OC)cc3o2)cc1 [Ex. 8, 5-[O-6-(D-glucopyranosyl)-β-D-glucopyranosyl]oxy-2-(4-ethoxyphenyl)-7-methoxy-4H-1-benzopyran-4-one] | – | – | – | – | – | particularly active | virtual absence |
